From US11096991B2, “Nanoreactor using polyion complex polymersomes, and method for producing same” (THE UNIVERSITY OF TOKYO, priority 2015, dated 2021)

Legend:
[1] = tested on: α-galactosidase (α-GAL), free (unencapsulated); assay: Enzyme activity of free α-GAL, Michaelis-Menten/Lineweaver-Burk plot with Gal-AMC; assay type: biochemical; conditions: substrate Gal-AMC, PBS, 37° C., AMC fluorescence Ex/Em=350 nm/450 nm
Protocol: Enzyme activity was evaluated with respect to free α-GAL and encapsulated α-GAL, respectively. The enzyme activity of α-GAL was checked by the reaction with a substrate, α-galactosyl-β-(7-amide-4-methyl coumarin) (also referred to as “Gal-AMC”) as shown in FIG. 19B. Gal-AMC is decomposed by the enzyme activity of α-GAL to produce 7-amino-4-methyl coumarin (also referred to as “AMC”), which emits fluorescence (Ex/Em=350 nm/450 nm).
More specifically, first, PBS solutions of Gal-AMC, free α-GAL, and encapsulated α-GAL were each placed in a thermostatic chamber and allowed to stand still at 37° C. Thereafter, the Gal-AMC solution was mixed with the free α-GAL or encapsulated α-GAL solution. From the solution mixture, an aliquot (predetermined amount) was taken and immediately poured to a 96 well plate (TECAN). The plate was placed in a multiplate reader kept at 37° C. in advance and fluorescence intensity was measured periodically for a predetermined time.
The enzyme activity was evaluated by preparing the Michaelis-Menten plot and Lineweaver-Burk plot. At this time, using a calibration curve previously prepared by using an AMS standard solution, a change of fluorescence intensity was converted into the production rate of a product. In this manner, a reaction rate V was obtained. Measurement was performed by changing the substrate concentration [S] variously. […]

[2] = tested on: α-galactosidase (α-GAL), encapsulated in PICsome; assay: Enzyme activity of α-GAL encapsulated in PICsome, Michaelis-Menten/Lineweaver-Burk plot with Gal-AMC; assay type: biochemical; conditions: substrate Gal-AMC, PBS, 37° C., AMC fluorescence Ex/Em=350 nm/450 nm
Protocol: In the same manner as in Section 5 of Example 1, a solution containing empty PICsomes was prepared. Thereafter, 11.4 mg of α-galactosidase (hereinafter referred to as “α-GAL”) was dissolved in 5.7 mL of a 10 mM phosphate buffer (PB, pH 7.4, 0 mM NaCl) to prepare a 2 mg/mL α-GAL solution.
An aliquot (1 mL) was taken from the 2 mg/mL α-GAL solution and mixed with 1 mL of the solution containing empty PICsomes. The solution mixture was stirred by a Vortex mixer for 2 minutes (2000 rpm). Thereafter, to the solution, a PB solution (5.6 mL) containing a water soluble condensing agent, EDC (10 mg/mL) was added. The mixture was allowed to stand still overnight to crosslink a polyion complex. […] A solution of fluorescence labeled α-GAL was prepared in the same manner as above.
Enzyme activity was evaluated with respect to free α-GAL and encapsulated α-GAL, respectively. […] Gal-AMC is decomposed by the enzyme activity of α-GAL to produce 7-amino-4-methyl coumarin (also referred to as “AMC”), which emits fluorescence (Ex/Em=350 nm/450 nm).
More specifically, first, PBS solutions of Gal-AMC, free α-GAL, and encapsulated α-GAL were each placed in a thermostatic chamber and allowed to stand still at 37° C. […] The plate was placed in a multiplate reader kept at 37° C. in advance and fluorescence intensity was measured periodically for a predetermined time. […]

With `Cc1cc(=O)oc2cc(N[C@H]3O[C@H](CO)[C@H](O)[C@H](O)[C@H]3O)ccc12` [Gal-AMC, α-galactosyl-β-(7-amide-4-methylcoumarin)] the Km [1] was 180 µM and the Km [2] was 190 µM.
